The results in this text go back to patent US20250339432A1, “QUINAZOLINONE COMPOUND AS BRAF INHIBITOR FOR THE TREATMENT OF ADVANCED SOLID CANCER OR METASTASES” (Hoffmann-La Roche Inc., priority 2022, published 2025).

One data set in a line: clinical. As to conditions: human, in vivo, po, 25 mg.
For data set [1] the following is noted: human, in vivo.
Description: Participants in the Pilot PK Cohort were enrolled and treated in a staggered manner (at least 3 days between the first and second participant).
The dosing regimen will then change to a twice-daily (BID) or three-times-daily (TID) administration, depending on new emerging PK data.
The number of patients with leptomeningeal involvement of their tumours is capped at 33% in each cohort. To avoid exposing participants to undue risk of toxicity, the maximum allowable dose increment recommended by the mCRM EWOC (modified continual reassessment method escalation with overdose control) design will be 100% (i.e., a 2-fold increase). […] The mCRM-EWOC will be adapted to the new dosing regimen.
Safety assessments will consist of monitoring and recording AEs, including serious AEs (SAEs) and non-SAEs of special interest (NSAESI); measurement of protocol-specified safety laboratory assessments; measurement of protocol-specified vital signs, ECGs; and other protocol-specified tests that are deemed critical to the safety evaluation of the study.
A short description of data set [2]: Non-clinical safety benchmark dose in rats.
For data set [3] the following is noted: in vivo.
Protocol: In a Pilot PK Cohort prior to the dose-escalation in Part 1a (monotherapy), the PK of Compound Ia was explored after a single, oral dose of 25 mg in 2 participants to address the PK uncertainty.
Blood samples to evaluate concentrations of Compound Ia and cobimetinib (and its metabolite[s], if appropriate) will be collected. The date and time of each sample collection will be recorded. Compound Ia and cobimetinib levels will be analyzed by using validated LC-MS/MS assays. […] Dedicated PK samples will be collected for the Pilot PK Cohort and the Food Cohort at pre-defined timepoints.
PK parameters for Compound Ia administered alone and in combination with cobimetinib will be derived from the plasma concentrations and will be listed and summarized using descriptive statistics (such as mean, standard deviation, coefficient of variation, median, minimum, and maximum). The PK parameters will include but are not limited to area under the curve (AUC), maximum concentration (Cmax), time of maximum concentration observed (Tmax) and, apparent oral clearance (CL/F), volume of distribution at steady-state (Vss/F), and terminal half-life (t½). Estimation of PK parameters may be performed using standard non-compartmental methods and/or population PK modeling. If data allow, other methods may be used for data analysis, e.g., PK and PD data may be used to develop a population PK/PD model. Individual and mean plasma Compound Ia concentration versus time data will be tabulated and plotted by dose levels. […] The linearity of PK (AUC and Cmax) will be investigated. To assess the FE on the PK of Compound Ia, PK parameters (such as AUC, Cmax, Tmax and t1/2) will be analyzed following oral administration of Compound Ia while either fed (high-fat meal) or fasted for a minimum of 6 participants. Estimation of PK parameters may be performed using standard non-compartmental methods and/or population PK modeling. Furthermore, Compound Ia CSF concentrations (where applicable) might be presented by listings and descriptive summary statistics (such as mean, standard deviation, coefficient of variation, median, minimum, and maximum). If data allow, other methods may be used for data analysis, e.g., PK and PD data may be used to develop a population PK/PD model.
Data set [4] can be described thus: Food Cohort: food effect on PK (high-fat meal vs fasted). The format is in vivo, human. The conditions noted are these: fed cohort vs fasted, preliminary PK data, FIG. 3. The text has this: Part 1—Food Cohort: The food effect (FE) on the PK of Compound Ia will be evaluated in Part 1a (Compound Ia monotherapy) or in Part 1b (Compound Ia in combination with cobimetinib) at the MTD and/or RP2D, or at dose levels close to the RP2D and/or MTD of Compound Ia with or without cobimetinib. For exploring the effect of food intake, participants will receive Compound Ia after a high-fat meal (Group 1) or following a 10-hour fast (Group 2) using a parallel design. For this pilot FE evaluation, a minimum of 6 evaluable participants will be enrolled.
Meals and Dietary Restrictions: Generally, for participants receiving Compound Ia, no dietary restrictions are foreseen. A preliminary assessment of the FE (food effect) on the PK of Compound Ia will be done in Part 1 to inform about potential dietary requirements for the dose expansion (Part 2) in case a FE is observed. For participants receiving cobimetinib, the use of grapefruit juice, a potent CYP3A4 enzyme inhibitor, is prohibited during the study and for 30 days after the last dose of study treatment. For Participants in Food Cohort in the Food Cohort of Part 1, the effect of food on the systemic exposure of Compound Ia will be explored close to the MTD and/or at RP2D or relevant dose levels for a minimum of 6 participants. […] The food intake during the high-fat meal plus calories and fat content will be recorded.

Data set [5] can be described thus: Solubility / biopharmaceutics classification. The conditions noted are these: for solubility across the physiological pH range: behaves like a weak acid. The data set is classed as physicochemical.

As usually defined, the half-life is the time in which the quantity being followed falls by half. The term NOAEL denotes the highest tested level that showed no adverse finding. `Cn1cnc2ccc(Oc3c(F)ccc(NS(=O)(=O)N4CC[C@@H](F)C4)c3C#N)cc2c1=O` [Compound Ia, (3R)—N-[2-cyano-4-fluoro-3-(3-methyl-4-oxo-quinazolin-6-yl)oxy-phenyl]-3-fluoro-pyrrolidine-1-sulfonamide] yielded a half-life in the data set “clinical” of 120 to 240 min. The “drug related Grade 3 adverse events” value in data set [1] is on record as “less than 25%”. In data set [2] (rat, in vivo), this molecule gave an NOAEL of 200 mg/kg/day. In data set [2] (rats), the “safety benchmark dose (toxic dose in 10% of animals)” value is 200 mg/kg/day. Also, in data set [3], the “safety margin based on unbound AUC0-∞ to the safety benchmark dose of 200 mg/kg/day in rat” value amounted to 22 fold and the “safety margin based on unbound Cmax to the safety benchmark dose of 200 mg/kg/day in rat” value is on record as 4 fold. In addition, in data set [3] (rat), the “safety margin based on preliminary unbound AUC0-∞ to the safety benchmark dose of 200 mg/kg/day in rats” value is recorded as 174 fold and the “safety margin based on preliminary unbound Cmax to the safety benchmark dose of 200 mg/kg/day in rats” value turned out to be 32 fold. In data set [4], the “effect of food on AUCINF (AUC0-∞)” value is listed as “did not significantly alter” and the “effect of food on Cmax” value is recorded as “lower Cmax”. Further, in data set [5], the “biopharmaceutics classification system class” value is on record as “class 2”; the solubility entry is “low and pH dependent solubility”; the “solubility across the physiological pH range” value is “purely soluble at low pH with increasing solubility at neutral and alkaline pH”. Further, the “solubility across the physiological pH range” value in data set [5] (listed as compound of formula (I)) is “poorly soluble at low pH with increasing solubility at neutral and alkaline pH”.
